This assay concerns the target Paired box protein Pax-2 (Homo sapiens, UniProt Q02962). Description: Inhibition of pax2 (unknown origin) in human SK-OV-3 cells measured after 24 hrs by immunoblotting analysis. In general terms: In western blotting, separated proteins are transferred to a membrane and probed.

pIC50: −log10 of the molar value.

Sequence of Paired box protein Pax-2 (Q02962 whole entry): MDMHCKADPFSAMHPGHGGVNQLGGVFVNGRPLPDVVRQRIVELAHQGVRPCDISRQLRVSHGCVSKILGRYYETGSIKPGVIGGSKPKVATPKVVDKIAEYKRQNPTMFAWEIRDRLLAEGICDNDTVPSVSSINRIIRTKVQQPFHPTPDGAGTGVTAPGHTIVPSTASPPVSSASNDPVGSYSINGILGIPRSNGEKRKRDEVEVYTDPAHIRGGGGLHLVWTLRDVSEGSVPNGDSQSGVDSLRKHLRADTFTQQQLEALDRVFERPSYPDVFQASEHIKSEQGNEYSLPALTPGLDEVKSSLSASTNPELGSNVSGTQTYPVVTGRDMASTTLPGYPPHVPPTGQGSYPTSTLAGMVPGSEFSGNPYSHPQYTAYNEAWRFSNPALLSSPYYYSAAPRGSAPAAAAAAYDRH

The molecule `Cc1ccc(C)c(N2CCN(c3c(C)c(C)nc4ncnn34)CC2)c1` showed a negative-log IC50 (pIC50) of 5.82.

By pIC50 is commonly meant the IC50 on a negative log10 scale, so that one unit is a factor of ten. A high value points to a small IC50.

Values taken from BindingDB's records for doi:10.1016/j.ejmech.2023.115101 (n/a, 2023).
